The structures appear in SMILES notation.

Results on 65 compounds are retold here after patent US20100069393A1, “METHOD OF TREATMENT AND AGENTS USEFUL FOR SAME” (PRANA BIOTECHNOLOGY LIMITED, priority 2006, published 2010).

This data set is described as follows: Neurotoxicity assay: MTS viability of primary cortical neuronal cultures. It counts as cell-based, mouse. The following applies: BL6Jx129sv, mouse, primary cortical neuronal cultures, Neuronal cells, read-out: Cytotoxicity (% viable at 1 and 10 uM); for viability at 4 days, 1 uM: test compound 1 uM; for viability at 4 days, 10 uM: test compound 10 uM. The procedure:
Media was then replaced with Neurobasal media (Invitrogen Life Technologies) and B27 supplements (Invitrogen Life Technologies). Cultures were maintained at 37° C. in 5% CO2. Prior to experimentation, the culture medium was replaced with Neurobasal media and B27 minus antioxidants (Invitrogen Life Technologies).
Cell viability is determined using the MTS assay. Culture medium is replaced with fresh neurobasal medium plus B27 supplements minus antioxidants. 1/10th volume MTS solution (Cell Titre 96 Aqueous One, Promega Corporation) and incubated at 37° C., 2 hrs. 200 microlitre aliquots are measured with a spectrophotometer at 560 nm.
Neuronal cortical cells were cultured for five days as per Assay 2 in NB media and B27 supplement.
On day six the test compounds were added to the neuronal cell cultures in NB media and B27 supplement minus antioxidants.
Test compounds were dissolved in 100% DMSO to a concentration of 2.5 mM (10 mM if excess compound was weighed out per vial—then diluted to 2.5 mM). […] Test compounds were not added directly to cells, instead they were added to a 48 well ‘Drug Plate’ as comprised below:
The Drug Plate was incubated at 37° C. for 15 mins. 200 μl of each well was added in triplicate to the corresponding cell plate. The cell plate was incubated at 37 C, for 4 days.
On completion of the assay, 1/10 volume MTS was added per well of plate (i.e. 25 μl/250 μl). The plates were incubated at 37 C for 2 hrs, and then absorbance was read at 560 nm.

Turning to `NC(=O)c1ccc2c(Cl)cc(Cl)c(O)c2n1`, the viability at 4 days, 1 uM is 74% and the viability at 4 days, 10 uM turned out to be 86%.

As for `Cc1ccccc1-c1cc(-c2ccccc2C)c2cccnc2c1O`, the viability at 4 days, 1 uM came out at 93% and the viability at 4 days, 10 uM turned out to be 34%.

`COc1ccc(-c2cc(Cl)c3cccnc3c2O)cc1`: the viability at 4 days, 1 uM was 97% and the viability at 4 days, 10 uM amounted to 31%.

For `Oc1c(-c2cc(F)cc(F)c2)cc(Cl)c2cccnc12`, the viability at 4 days, 1 uM is 90% and the viability at 4 days, 10 uM worked out at 66%.

As to `Oc1c(Br)cc(-c2cc(F)cc(F)c2)c2cccnc12`, the viability at 4 days, 1 uM stood at 95% and the viability at 4 days, 10 uM amounted to 95%.

Take `Oc1c(-c2cc3ccccc3s2)cc(Cl)c2cccnc12`: the viability at 4 days, 1 uM is 87% and the viability at 4 days, 10 uM worked out at 32%.

As to `O=C(O)CNC(=O)c1ccc2cccc(O)c2n1`, the viability at 4 days, 1 uM is 100% and the viability at 4 days, 10 uM stood at 89%.

Take `CO/N=C/c1ccc2c(Cl)cc(Cl)c(O)c2n1`: the viability at 4 days, 1 uM came to 77% and the viability at 4 days, 10 uM turned out to be 54%.

Turning to `Oc1c(-c2cccc(F)c2)cc(Cl)c2cccnc12`, the viability at 4 days, 1 uM worked out at 98% and the viability at 4 days, 10 uM was found to be 71%.

Take `Oc1cccc2ccc(CNCc3ccccn3)nc12`: the viability at 4 days, 1 uM is 96% and the viability at 4 days, 10 uM was 67%.

On to `Nc1ccc2cccc(O)c2n1`, for which the viability at 4 days, 1 uM was 95% and the viability at 4 days, 10 uM stood at 48%.

Turning to `Nc1ccc(O)c2ncccc12`, the viability at 4 days, 1 uM was found to be 108% and the viability at 4 days, 10 uM is 71%.

For `O/N=C/c1ccc2cccc(O)c2n1`, the viability at 4 days, 1 uM was 100% and the viability at 4 days, 10 uM amounted to 95%.

Turning to `COc1cccc(-c2cc(Cl)c3cccnc3c2O)c1`, the viability at 4 days, 1 uM came to 83% and the viability at 4 days, 10 uM is 71%.

As to `O=[N+]([O-])c1cccc(-c2cc(Cl)c3cccnc3c2O)c1`, the viability at 4 days, 1 uM turned out to be 92% and the viability at 4 days, 10 uM is 78%.

Consider `O=C(O)CNC(=O)c1cc(O)c2cccc(O)c2n1`, for which the viability at 4 days, 1 uM came to 98% and the viability at 4 days, 10 uM is 94%.

With `O/N=C/c1ccc2c(Cl)cc(Cl)c(O)c2n1`, the viability at 4 days, 1 uM came out at 91% and the viability at 4 days, 10 uM turned out to be 70%.

With `O=C(NCCc1ccccn1)c1ccc2cccc(O)c2n1`, the viability at 4 days, 1 uM is 95% and the viability at 4 days, 10 uM was 93%.

As to `Oc1ccc(Cl)c2cccnc12`, the viability at 4 days, 1 uM worked out at 94% and the viability at 4 days, 10 uM was 85%.

Consider `Oc1cccc2ccc(CN(Cc3ccccn3)Cc3c[nH]cn3)nc12`, for which the viability at 4 days, 1 uM came out at 90% and the viability at 4 days, 10 uM is 70%.

Turning to `Oc1cccc2ccc(CN(CCc3c[nH]cn3)Cc3ccccn3)nc12`, the viability at 4 days, 1 uM was 98% and the viability at 4 days, 10 uM was found to be 27%.

For the compound `O=C(Nc1nccs1)c1ccc2cccc(O)c2n1`, the viability at 4 days, 1 uM was 100% and the viability at 4 days, 10 uM turned out to be 100%.

In the case of `O=C(NCc1ccccn1)c1ccc2cccc(O)c2n1`, the viability at 4 days, 1 uM was determined as 96% and the viability at 4 days, 10 uM came to 85%.

For `Oc1cccc2ccc(-c3ccccn3)nc12`, the viability at 4 days, 1 uM stood at 107% and the viability at 4 days, 10 uM came to 75%.

Turning to `Oc1cccc2ccc(CNCCc3c[nH]cn3)nc12`, the viability at 4 days, 1 uM came out at 101% and the viability at 4 days, 10 uM came to 43%.

Regarding `Oc1cccc2ccc(CN(CCc3c[nH]cn3)Cc3nccs3)nc12`, the viability at 4 days, 1 uM was found to be 82% and the viability at 4 days, 10 uM was found to be 34%.

For the compound `Oc1c(Br)cc(Br)c2cccnc12`, the viability at 4 days, 1 uM was 100% and the viability at 4 days, 10 uM is 94%.

For the compound `Oc1c(-c2cc(Cl)c3cccnc3c2O)cc(Cl)c2cccnc12`, the viability at 4 days, 1 uM stood at 97% and the viability at 4 days, 10 uM worked out at 84%.

In the case of `Oc1c(Cl)cc(Cl)c2cc(Cl)cnc12`, the viability at 4 days, 1 uM was found to be 82% and the viability at 4 days, 10 uM stood at 55%.

`O=C(NCCc1c[nH]cn1)c1ccc2cccc(O)c2n1`: the viability at 4 days, 1 uM turned out to be 100% and the viability at 4 days, 10 uM was 100%.

For `Oc1cccc2ccc(CN(Cc3ccccn3)Cc3nccs3)nc12`, the viability at 4 days, 1 uM was found to be 97% and the viability at 4 days, 10 uM was found to be 38%.

Regarding `CC(Br)CCn1cnc2c(O)c(Cl)cc(Cl)c2c1=O` (stereo not shown), the viability at 4 days, 1 uM amounted to 101% and the viability at 4 days, 10 uM is 73%.

Turning to `Oc1c(-c2ccc(F)cc2)cc(Cl)c2cccnc12`, the viability at 4 days, 1 uM was found to be 103% and the viability at 4 days, 10 uM came out at 75%.

For the compound `NCCNC(=O)c1ccc2cccc(O)c2n1`, the viability at 4 days, 1 uM is 106% and the viability at 4 days, 10 uM amounted to 96%.

Take `O=C(NCc1ccccn1)c1cc(O)c2cccc(O)c2n1`: the viability at 4 days, 1 uM was determined as 100% and the viability at 4 days, 10 uM was determined as 100%.

Regarding `Cc1cccc(-c2cc(Cl)c3cccnc3c2O)c1`, the viability at 4 days, 1 uM came out at 98% and the viability at 4 days, 10 uM came to 73%.

`Oc1ccccc1-c1cc(Cl)c2cccnc2c1O`: the viability at 4 days, 1 uM amounted to 100% and the viability at 4 days, 10 uM was found to be 70%.

`CCCn1c(CNC)nc2c(O)c(Cl)cc(Cl)c2c1=O`: the viability at 4 days, 1 uM was 110% and the viability at 4 days, 10 uM came to 102%.

`Oc1c(Br)cc(-c2ccccc2)c2cccnc12`: the viability at 4 days, 1 uM turned out to be 100% and the viability at 4 days, 10 uM was 97%.

For `O=c1[nH]cnc2c(O)cccc12`, the viability at 4 days, 1 uM amounted to 101% and the viability at 4 days, 10 uM stood at 89%.

`Oc1ccc(CCc2ccc3cccc(O)c3n2)cc1`: the viability at 4 days, 1 uM came to 89% and the viability at 4 days, 10 uM was determined as 86%.

In the case of `Cc1ccc2cccc(O)c2n1`, the viability at 4 days, 1 uM stood at 98% and the viability at 4 days, 10 uM worked out at 58%.

For `Nc1cnc2c(O)c(Cl)cc(Cl)c2c1`, the viability at 4 days, 1 uM was found to be 94% and the viability at 4 days, 10 uM was 10%.

As to `Oc1c(-c2ccccc2C(F)(F)F)cc(Cl)c2cccnc12`, the viability at 4 days, 1 uM is 96% and the viability at 4 days, 10 uM turned out to be 93%.

With `Oc1c(-c2ccsc2)cc(Cl)c2cccnc12`, the viability at 4 days, 1 uM stood at 93% and the viability at 4 days, 10 uM was 31%.

`CN(CCc1ccccn1)Cc1ccc2cccc(O)c2n1`: the viability at 4 days, 1 uM turned out to be 97% and the viability at 4 days, 10 uM amounted to 57%.

Regarding `O=C(Nc1ccccc1O)c1ccc2cccc(O)c2n1`, the viability at 4 days, 1 uM worked out at 104% and the viability at 4 days, 10 uM is 92%.

Regarding `Oc1cccc2ccc(CN(CCc3c[nH]cn3)Cc3c[nH]cn3)nc12`, the viability at 4 days, 1 uM came out at 97% and the viability at 4 days, 10 uM was 26%.

As for `O=C(c1ccc2cccc(O)c2n1)N(Cc1ccccn1)Cc1ccccn1`, the viability at 4 days, 1 uM amounted to 81% and the viability at 4 days, 10 uM was found to be 79%.

Consider `Cc1cccc(-c2ccc3cccc(O)c3n2)n1`, for which the viability at 4 days, 1 uM came to 91% and the viability at 4 days, 10 uM is 58%.

With `CC(=O)NCc1ccc2cccc(O)c2n1`, the viability at 4 days, 1 uM was found to be 100% and the viability at 4 days, 10 uM was 91%.

Regarding `Cc1cnc2c(O)c(Cl)cc(Cl)c2n1`, the viability at 4 days, 1 uM was found to be 94% and the viability at 4 days, 10 uM was found to be 87%.

`Cc1nccn1-c1ccc2cccc(O)c2n1`: the viability at 4 days, 1 uM came to 104% and the viability at 4 days, 10 uM was 96%.

As to `CCN(CC)Cc1ccc2c(Cl)cc(Cl)c(O)c2n1`, the viability at 4 days, 1 uM worked out at 74% and the viability at 4 days, 10 uM turned out to be 70%.

With `NCc1ccc2cccc(O)c2n1`, the viability at 4 days, 1 uM stood at 101% and the viability at 4 days, 10 uM stood at 97%.

In the case of `Cc1cc(C)c2cccnc2c1O`, the viability at 4 days, 1 uM was found to be 86% and the viability at 4 days, 10 uM is 85%.

Consider `Oc1c(-c2ccccc2)cc(Cl)c2cccnc12`, for which the viability at 4 days, 1 uM worked out at 93% and the viability at 4 days, 10 uM is 72%.

For the compound `O=C(CNC(=O)c1cc(O)c2cccc(O)c2n1)NCCc1c[nH]cn1`, the viability at 4 days, 1 uM is 98% and the viability at 4 days, 10 uM was 89%.

As for `COc1ccccc1-c1cc(I)c(O)c2ncccc12`, the viability at 4 days, 1 uM came to 91% and the viability at 4 days, 10 uM was 35%.

`CCOC(=O)c1cnc2c(O)c(CC)ncc2c1`: the viability at 4 days, 1 uM is 103% and the viability at 4 days, 10 uM came to 92%.

Turning to `O=c1c2c(Cl)cc(Cl)c(O)c2ncn1CC1CCNCC1`, the viability at 4 days, 1 uM was 97% and the viability at 4 days, 10 uM turned out to be 96%.

On to `COc1c(Cl)cc(Cl)c2c(=O)n(N)cnc12`, for which the viability at 4 days, 1 uM was 99% and the viability at 4 days, 10 uM turned out to be 93%.

In the case of `Oc1c(I)cc(-c2ccccc2C(F)(F)F)c2cccnc12`, the viability at 4 days, 1 uM is 91% and the viability at 4 days, 10 uM is 90%.

`CSc1ccccc1-c1ccc2cccc(O)c2n1`: the viability at 4 days, 1 uM came to 114% and the viability at 4 days, 10 uM was determined as 112%.

Consider `Nc1ccccc1NC(=O)c1cc(O)c2cccc(O)c2n1`, for which the viability at 4 days, 1 uM came to 98% and the viability at 4 days, 10 uM is 82%.
